Assay results published in the supplement of paper PMC10307832.

Assays:
Assay in all cases: relative viability (nuclei count vs DMSO), 5 days (fraction); higher = more cells survive
Carfilzomib + AZD7762 = compound: CC(C)C[C@H](NC(=O)[C@H](CCc1ccccc1)NC(=O)CN1CCOCC1)C(=O)N[C@@H](Cc1ccccc1)C(=O)N[C@@H](CC(C)C)C(=O)[C@@]1(C)CO1 [Carfilzomib] + NC(=O)Nc1cc(-c2cccc(F)c2)sc1C(=O)N[C@H]1CCCNC1 [AZD7762] (partner 0.2 µM)
Method in brief: (§1)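 Nuclei were stained with Hoechst during a one-step fixation (final 0.05% Triton X-100, 1% formaldehyde, 1 ug/ml Hoechst) carried out 5 days after dosing, then counted on 4× images. The cells, lung cancer lines in 1536-well plates, had been dosed by pin tool the day after seeding with one drug alone or a fixed anchor-drug dose plus five library-drug doses (not always all listed) in √10 steps. Relative viability is the nuclei count in treated wells divided by that in vehicle wells, and each value is the median of duplicate plates.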

Crizotinib + Pictilisib = compound: C[C@@H](Oc1cc(-c2cnn(C3CCNCC3)c2)cnc1N)c1c(Cl)ccc(F)c1Cl [Crizotinib] + CS(=O)(=O)N1CCN(Cc2cc3nc(-c4cccc5[nH]ncc45)nc(N4CCOCC4)c3s2)CC1 [Pictilisib] (partner 1 µM)
Method in brief: as §1

Carfilzomib + Foretinib = compound: CC(C)C[C@H](NC(=O)[C@H](CCc1ccccc1)NC(=O)CN1CCOCC1)C(=O)N[C@@H](Cc1ccccc1)C(=O)N[C@@H](CC(C)C)C(=O)[C@@]1(C)CO1 [Carfilzomib] + COc1cc2c(Oc3ccc(NC(=O)C4(C(=O)Nc5ccc(F)cc5)CC4)cc3F)ccnc2cc1OCCCN1CCOCC1 [Foretinib] (partner 0.25 µM)
Method in brief: as §1

Carfilzomib + Trametinib = compound: CC(C)C[C@H](NC(=O)[C@H](CCc1ccccc1)NC(=O)CN1CCOCC1)C(=O)N[C@@H](Cc1ccccc1)C(=O)N[C@@H](CC(C)C)C(=O)[C@@]1(C)CO1 [Carfilzomib] + CC(=O)Nc1cccc(-n2c(=O)n(C3CC3)c(=O)c3c(Nc4ccc(I)cc4F)n(C)c(=O)c(C)c32)c1 [Trametinib] (partner 0.02 µM)
Method in brief: as §1

Row | Cell Line | relative viability (Carfilzomib + AZD7762; first compound 0.001 µM) | relative viability (Carfilzomib + AZD7762; first compound 0.003162 µM) | relative viability (Carfilzomib + AZD7762; first compound 0.01 µM) | relative viability (Carfilzomib + AZD7762; first compound 0.03162 µM) | relative viability (Carfilzomib + AZD7762; first compound 0.1 µM) | relative viability (Crizotinib + Pictilisib; first compound 0.01 µM) | relative viability (Crizotinib + Pictilisib; first compound 0.03162 µM) | relative viability (Crizotinib + Pictilisib; first compound 0.1 µM) | relative viability (Crizotinib + Pictilisib; first compound 0.3162 µM) | relative viability (Crizotinib + Pictilisib; first compound 1 µM) | relative viability (Carfilzomib + Foretinib; first compound 0.003162 µM) | relative viability (Carfilzomib + Foretinib; first compound 0.01 µM) | relative viability (Carfilzomib + Foretinib; first compound 0.03162 µM) | relative viability (Carfilzomib + Foretinib; first compound 0.1 µM) | relative viability (Carfilzomib + Trametinib; first compound 0.001 µM) | relative viability (Carfilzomib + Trametinib; first compound 0.003162 µM) | relative viability (Carfilzomib + Trametinib; first compound 0.01 µM) | relative viability (Carfilzomib + Trametinib; first compound 0.03162 µM) | relative viability (Carfilzomib + Trametinib; first compound 0.1 µM) | relative viability (Carfilzomib + Foretinib; first compound 0.001 µM)
1 | NCI-H1975 | 0.651 | 0.804 | 0.684 | 0.222 | 0.19 | 0.28 | 0.294 | 0.308 | 0.344 | 0.266 | 0.859 | 0.621 | 0.0974 | 0.104 | 0.267 | 0.312 | 0.33 | 0.102 | 0.101 | –
2 | NCI-H1993 | 0.625 | 0.841 | 0.69 | 0.589 | 0.503 | 0.682 | 0.823 | 0.761 | 0.667 | 0.748 | 0.865 | 0.81 | 0.778 | 0.444 | 0.51 | 0.471 | 0.603 | 0.53 | 0.481 | 0.798
3 | NCI-H2085 | 0.726 | 0.942 | 0.988 | 0.321 | 0.293 | 0.357 | 0.484 | 0.409 | 0.437 | 0.451 | 0.925 | 0.829 | 0.249 | 0.226 | 0.498 | 0.503 | 0.478 | 0.35 | 0.223 | 0.909
4 | NCI-H2087 | 1.21 | 1.31 | 0.946 | 0.515 | 0.0622 | 0.693 | 0.909 | 0.953 | 0.42 | 0.943 | 1.15 | 0.693 | 0.0563 | 0.0605 | 0.187 | 0.235 | 0.131 | 0.0842 | 0.0653 | 1.03
5 | NCI-H2126 | 0.875 | 1 | 1.01 | 1.01 | 0.697 | 0.456 | 0.5 | 0.481 | 0.429 | 0.48 | 1.3 | 1.2 | 1.12 | 0.48 | 0.516 | 0.61 | 0.58 | 0.563 | 0.447 | 1.2
6 | NCI-H2170 | 0.846 | 0.963 | 1.02 | 0.734 | 0.238 | 0.316 | 0.315 | 0.286 | 0.277 | 0.292 | 1.02 | 1.06 | 1.06 | 0.397 | 0.931 | 0.921 | 0.863 | 0.868 | 0.25 | 1.05
